The values below come from patent US20140155415A1, “BENZ[…] BENZODIOXINE COMPOUNDS THAT INTERACT WITH G[…] FOR THE TREATMENT OF DIABETES” (priority 2011, published 2014).

The target in assay [1] is T1, GK-GKRP (glucokinase / glucokinase regulatory protein) (Homo sapiens, UniProt Q14397).
T1 sequence (Q14397 1-625): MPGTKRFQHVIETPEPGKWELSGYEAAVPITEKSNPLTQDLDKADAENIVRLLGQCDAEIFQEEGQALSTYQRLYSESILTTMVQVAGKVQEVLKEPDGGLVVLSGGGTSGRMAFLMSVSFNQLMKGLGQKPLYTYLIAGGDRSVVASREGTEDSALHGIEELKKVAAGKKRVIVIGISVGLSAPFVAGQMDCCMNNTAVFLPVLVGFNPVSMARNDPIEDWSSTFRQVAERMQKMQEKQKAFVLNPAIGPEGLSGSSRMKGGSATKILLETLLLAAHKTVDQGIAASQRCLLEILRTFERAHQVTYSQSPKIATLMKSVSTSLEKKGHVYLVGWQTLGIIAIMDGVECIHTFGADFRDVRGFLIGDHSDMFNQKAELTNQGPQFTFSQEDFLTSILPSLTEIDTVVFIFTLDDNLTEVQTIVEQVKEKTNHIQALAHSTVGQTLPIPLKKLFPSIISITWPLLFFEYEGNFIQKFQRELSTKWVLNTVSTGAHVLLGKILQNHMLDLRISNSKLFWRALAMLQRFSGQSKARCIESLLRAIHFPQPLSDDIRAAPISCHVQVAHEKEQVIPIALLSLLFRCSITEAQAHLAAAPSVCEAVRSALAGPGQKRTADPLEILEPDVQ
Kind of assay: GKRP LC MS/MS Biochemical Assay (LCMS/MS). Conditions: formation of 13C-glucose-6-phosphate from 13C-glucose by LC MS/MS, human His-hepatic GK, fructose-6-phosphate. The procedure, abridged:
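Human His-tagged hepatic GK (30 nM working stock, 5×) with GKRP in 50 mM Tris pH 7.5, 4 mM MgCl2, 6% DMSO; compound preincubated 30 min, then GK added for 30 min at room temperature. Acetonitrile-stopped; 13C-glucose-6-phosphate formed from 13C-glucose quantified by LC MS/MS.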

The target of assay [2] is T2, GK-GKRP (interaction between glucokinase and glucokinase regulatory protein) (Homo sapiens, UniProt Q14397).
T2 construct: made in house; host or cells: GKRP: baculovirus system
T2 sequence (Q14397 1-625): T1 sequence (Q14397 1-625)
The assay can be described thus: GK-GKRP Binding Assay (Binding), AlphaScreen. Conditions: avi-tagged GKRP, GK-fluorescein, AlphaScreen beads, 1 μM sorbitol-6-phosphate; read-out: GK-GKRP IC50 (Binding). In a few lines:
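Biotinylated, C-terminally avi-tagged human GKRP was preincubated 20 min at room temperature with compound, then fluorescein-labelled human hepatic GK was added (6 nM in the added buffer). The mix was incubated 2 h at room temperature in the dark before AlphaScreen reading. Buffer was 20 mM Tris pH 7.5, 0.05% BSA, 1 mM DTT, 1 μM sorbitol-6-phosphate.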

A word on the EC50: it is the concentration giving half of the maximal effect. The low end stands for higher potency in that assay, the high end for lower potency in that assay. Broadly, the IC50 is the concentration that inhibits the measured activity by half. `COc1cccnc1C(NS(=O)(=O)c1ccc2c(c1)OCCCO2)c1cc2ccccc2o1` (racemic) [Example 30, N-(1-benzofuran-2-yl(3-methoxy-2-pyridinyl)methyl)-3,4-dihydro-2H-1,5-benzodioxepine-7-sulfonamide]: in assay [1], the concentration giving a half-maximal response (EC50) worked out at 150 nM. Besides, the concentration for half-maximal inhibition (IC50) in assay [2] came to 310 nM.

For `C[C@@](O)(c1ccnc(-c2cccc3cc([C@H](NS(=O)(=O)c4ccc5c(c4)OCCCO5)c4ccccc4)sc23)c1)C(F)(F)F` (single isomer, unassigned) [Example 70 Peak #1], the EC50 in assay [1] is 17 nM. Also, in assay [2], the half-maximal inhibitory concentration (IC50) stood at 7 nM.

For the molecule `CCc1ccccc1[C@@H](NS(=O)(=O)c1ccc2c(c1)OCCCO2)c1cc2ccccc2s1` (single isomer, unassigned) [Example 37 Peak #2], the midpoint of the response in assay [1], the EC50, lay at 38 nM. The concentration for half-maximal inhibition (IC50) in assay [2] was determined as 130 nM.

In turn, `COc1ccccc1C(NS(=O)(=O)c1ccc2c(c1)OCCCO2)c1cc2ccncc2s1` (racemic) [Example 66, N-((2-methoxyphenyl)(thieno[2,3-c]pyridin-2-yl)methyl)-3,4-dihydro-2H-1,5-benzodioxepine-7-sulfonamide] came in with an EC50 in assay [1] of 82 nM. Moreover, in assay [2], the IC50 is 72 nM.

Consider `Cc1ccccc1[C@@H](NS(=O)(=O)c1ccc2c(c1)OCCCO2)c1cc2ccccc2s1` (single isomer, unassigned) [Example 36 Peak #2], for which, in assay [1], the EC50 was determined as 62 nM. In assay [2], the half-inhibitory concentration (IC50) worked out at 240 nM.

`COc1cnccc1C(NS(=O)(=O)c1ccc2c(c1)OCCCO2)c1cc2cccnc2s1` (racemic) [Example 50, N-((3-methoxy-4-pyridinyl)(thieno[2,3-b]pyridin-2-yl)methyl)-3,4-dihydro-2H-1,5-benzodioxepine-7-sulfonamide] displayed an EC50 in assay [1] of 480 nM. Also, in assay [2], the concentration for half-maximal inhibition (IC50) stood at 410 nM.

`O=S(=O)(NC(c1cc2ccccc2o1)c1ccccc1F)c1ccc2c(c1)OCCCO2` (racemic) [Example 23, N-(1-benzofuran-2-yl(2-fluorophenyl)methyl)-3,4-dihydro-2H-1,5-benzodioxepine-7-sulfonamide]: the EC50 in assay [1] amounted to 450 nM. Also, in assay [2], the IC50 was 490 nM.

`O=S(=O)(NC(c1cc2ccccc2o1)c1ccccc1OC(F)(F)F)c1ccc2c(c1)OCCCO2` (racemic) [Example 18, N-(1-benzofuran-2-yl(2-(trifluoromethoxy)phenyl)methyl)-3,4-dihydro-2H-1,5-benzodioxepine-7-sulfonamide] yielded an EC50 in assay [1] of 340 nM. Further, the half-inhibitory concentration (IC50) in assay [2] is 970 nM.

Consider `CSc1ccccc1C(NS(=O)(=O)c1ccc2c(c1)OCCCO2)c1nc2cccnc2s1` (racemic) [Example 65, N-((2-(methylsulfanyl)phenyl)([1,3]thiazolo[5,4-b]pyridin-2-yl)methyl)-3,4-dihydro-2H-1,5-benzodioxepine-7-sulfonamide], for which, in assay [1], the response was half-maximal at 37 nM (EC50). The half-inhibitory concentration (IC50) in assay [2] was 9 nM.

`COc1ccccc1[C@@H](NS(=O)(=O)c1ccc2c(c1)OCCCO2)c1cc2ccccc2s1` (single isomer, unassigned) [Example 40 Peak #2]: in assay [1], the midpoint of the response, the EC50, lay at 26 nM. Moreover, the half-inhibitory concentration (IC50) in assay [2] amounted to 28 nM.

Turning to `O=S(=O)(NC(c1cc2ccccc2o1)c1ccccc1Br)c1ccc2c(c1)OCCCO2` (racemic) [Example 22, N-(1-benzofuran-2-yl(2-bromophenyl)methyl)-3,4-dihydro-2H-1,5-benzodioxepine-7-sulfonamide], the EC50 in assay [1] amounted to 58 nM. Also, the IC50 in assay [2] turned out to be 150 nM.

Regarding `O=S(=O)(NC(c1nc2cccnc2s1)c1ccccc1Cl)c1ccc2c(c1)OCCCO2` (racemic) [Example 68, N-((2-chlorophenyl)([1,3]thiazolo[5,4-b]pyridin-2-yl)methyl)-3,4-dihydro-2H-1,5-benzodioxepine-7-sulfonamide], a half-maximal effect in assay [1] (EC50) was put at 63 nM. Moreover, in assay [2], the half-maximal inhibitory concentration (IC50) was 54 nM.

Regarding `O=S(=O)(NC(c1ccccc1)c1cc2cccnc2s1)c1ccc2c(c1)OCCCO2` (racemic) [Example 46, N-(phenyl(thieno[2,3-b]pyridin-2-yl)methyl)-3,4-dihydro-2H-1,5-benzodioxepine-7-sulfonamide], the EC50 in assay [1] worked out at 220 nM. Also, the 50% inhibitory concentration (IC50) in assay [2] stood at 360 nM.

The molecule `COc1ccccc1[C@H](NS(=O)(=O)c1ccc2c(c1)OCCCO2)c1cc2ccccc2s1` (single isomer, unassigned) [Example 40 Peak #1] gave an EC50 in assay [1] of 130 nM. Also, in assay [2], the IC50 came to 360 nM.

In assay [1], `Cc1ccc(F)cc1C(NS(=O)(=O)c1ccc2c(c1)OCCCO2)c1cc2ccccc2o1` (racemic) [Example 4, N-(1-benzofuran-2-yl(5-fluoro-2-methylphenyl)methyl)-3,4-dihydro-2H-1,5-benzodioxepine-7-sulfonamide] had an EC50 of 460 nM. Moreover, the IC50 in assay [2] was 1400 nM.

In the case of `O=S(=O)(N[C@H](c1cc2ccccc2o1)c1ccccc1Br)c1ccc2c(c1)OCCCO2` (single isomer, unassigned) [Example 22 Peak #1], the EC50 in assay [1] is greater than 20000 nM. In addition, the concentration for half-maximal inhibition (IC50) in assay [2] was 4500 nM.

For `O=S(=O)(N[C@@H](c1ccccc1)c1cc2ccccc2s1)c1ccc2c(c1)OCCCO2` (single isomer, unassigned) [Example 57 Peak #1], the 50% effective concentration (EC50) in assay [1] worked out at 700 nM. Further, the 50% inhibitory concentration (IC50) in assay [2] was found to be 3000 nM.

The molecule `COc1cccnc1C(NS(=O)(=O)c1ccc2c(c1)OCCCO2)c1nc2ccccc2s1` (racemic) [Example 53, N-(1,3-benzothiazol-2-yl(3-methoxy-2-pyridinyl)methyl)-3,4-dihydro-2H-1,5-benzodioxepine-7-sulfonamide] gave a half-maximal effective concentration (EC50) in assay [1] of 360 nM. The IC50 in assay [2] was 270 nM.

With `O=S(=O)(N[C@@H](c1cc2ccccc2o1)c1ccccc1Cl)c1ccc2c(c1)OCCCO2` (single isomer, unassigned) [Example 20 Peak #2], in assay [1], a half-maximal effect (EC50) was put at 30 nM. Also, the 50% inhibitory concentration (IC50) in assay [2] came to 78 nM.

Regarding `CSc1ccccc1[C@@H](NS(=O)(=O)c1ccc2c(c1)OCCCO2)c1cc2ccncc2s1` (single isomer, unassigned) [Example 64 Peak #2], the EC50 in assay [1] amounted to 10 nM. Moreover, the half-maximal inhibitory concentration (IC50) in assay [2] was determined as 1 nM.

For the molecule `O=S(=O)(NC(c1ccccc1)c1cc2ccncc2s1)c1ccc2c(c1)OCCCO2` (racemic) [Example 60, N-(phenyl(thieno[2,3-c]pyridin-2-yl)methyl)-3,4-dihydro-2H-1,5-benzodioxepine-7-sulfonamide], the EC50 in assay [1] turned out to be 570 nM. The IC50 in assay [2] amounted to 360 nM.

`COc1ccccc1C(NS(=O)(=O)c1ccc2c(c1)OCCCO2)c1cc2cccnc2s1` (racemic) [Example 47, N-((2-methoxyphenyl)(thieno[2,3-b]pyridin-2-yl)methyl)-3,4-dihydro-2H-1,5-benzodioxepine-7-sulfonamide]: in assay [1], it took 59 nM to reach a half-maximal effect (EC50). In addition, the IC50 in assay [2] came out at 27 nM.

As for `CSc1ccccc1C(NS(=O)(=O)c1ccc2c(c1)OCCCO2)c1cc2ccccc2o1` (racemic) [Example 19, N-(1-benzofuran-2-yl(2-(methylsulfanyl)phenyl)methyl)-3,4-dihydro-2H-1,5-benzodioxepine-7-sulfonamide], the response in assay [1] was half-maximal at 38 nM (EC50). Further, the IC50 in assay [2] came to 160 nM.

`COc1ccccc1C(NS(=O)(=O)c1ccc2c(c1)OCCCO2)c1cc2ccccc2s1` (racemic) [Example 40, N-(1-benzothiophen-2-yl(2-methoxyphenyl)methyl)-3,4-dihydro-2H-1,5-benzodioxepine-7-sulfonamide] registered a half-maximal effective concentration (EC50) in assay [1] of 46 nM. The IC50 in assay [2] came out at 110 nM.
